# Experiments:
# Type in all cases: functional
# Homo sapiens [1] = assay: Reduction of cardiovascular events in patient with coronary artery disease and left ventricular systolic dysfunction assessed as relative risk reduction at 7.5 mg, po bid; parameters: scale not given: the % may be the effect or the level left
# Homo sapiens [2] = assay: Reduction of cardiovascular events in patient with acute MI and coronary revascularization assessed as reduction in death at 7.5 mg, po bid; parameters: scale not given: the % may be the effect or the level left
# Homo sapiens [3] = assay: Reduction of cardiovascular events in patient with acute MI and coronary revascularization assessed as reduction in heart rate at 7.5 mg, po bid
# Homo sapiens [4] = assay: Reduction of cardiovascular events in patient with severe chronic heart failure and left ventricular systolic dysfunction assessed as relative risk reduction at 7.5 mg, po bid for 14 days; parameters: scale not given: the % may be the effect or the level left
# Homo sapiens [5] = assay: Reduction of cardiovascular events in patient with severe chronic heart failure assessed as reduction in death at 7.5 mg, po bid for 14 days; parameters: scale not given: the % may be the effect or the level left
# Homo sapiens [6] = assay: Reduction of cardiovascular events in patient with severe chronic heart failure assessed as reduction in heart rate at 7.5 mg, po bid for 14 days
structure (smiles),measurement,setting,value
COc1cc2c(cc1OC)CC(=O)N(CCCN(C)C[C@H]1Cc3cc(OC)c(OC)cc31)CC2 [IVABRADINE],Activity,Homo sapiens [1],<=24%
same,Activity,Homo sapiens [2],31%
same,Activity,Homo sapiens [3],12 bpm
same,Activity,Homo sapiens [4],18%
same,Activity,Homo sapiens [5],26%
same,Activity,Homo sapiens [6],15 bpm

# From ChEMBL document CHEMBL4219196, “Next-generation small molecule therapies for heart failure: 2015 and beyond” (2018)
